Marks after values point to notes of the source that are not given here.
Legend:
[1] = tested on: NO free radicals (acetylcholine induced vasodilation); experiment: NO radical scavenging: inhibition of acetylcholine induced vasodilation of aorta rings; parameters: species or system Wistar rats; conditions: final concentration 5×10^−6 M; n = 6
Description: Male Wistar rats weighing 250 to 300 g were starved for 12 h before operation with free access to drinking water, and sacrificed by cervical dislocation. Thoracotomy was immediately carried out and thoracic aorta was taken out, connective tissues attached thereto were dissected, and vessels were cut into aorta rings with a length of 3 to 5 mm and placed into a perfusion bath. The bath contained 15 ml Krebs-Henseleit solution and was kept at a constant temperature of 37° C., into which 95% O2-5% CO2 gas was charged. The anchor to which the aorta rings were immobilized was connected to a tension transducer, and vasomotion curves were recorded on a dual-trace recorder at a paper speed of 1 mm/min. With the static tension adjusted to 1.0 g and 30 min of equilibration, norepinephrine at a final concentration of 10^−8 M was dosed to allow the aorta to contract for preexcitation. Norepinephrine was washed off, followed by 30 min of equilibration, and norepinephrine was added into the bath to a final concentration of 10^−8 M. When the contraction tension was steady at a plateau level, 20 μl normal saline (blank), a 20 μl solution of any one of compounds Ia to Il in normal saline (at a final concentration of 5×10^−6 M), or a 20 μl solution of NO free radical scavenger (1,3-dioxo-2-(4′-oxyacetoxyl-phenyl)-4,4,5,5-tetramethylimidazoline, TMMZ) in normal saline (at a final concentration of 5×10^−6 M) was added into the bath. When stabilized, a 20 μl acetylcholine in normal saline was added (at a final concentration of 10^−6 M). The NO scavenging ability of the drugs was expressed as a percentage of inhibition of acetylcholine induced vasodilation.

rats with stroke [2] = experiment: Immediate treatment after stroke onset, neural function scores (Zealonga method, 0 no loss to 5 death); format: in vivo, SD rats; conditions: 1 μmol/kg, 24 h after awake
Description: The in vivo anti-stroke activity of the present invention was represented by neural function scores, with a lower score indicating higher activity. A 10% chloral hydrate solution (400 mg/kg) was injected intraperitoneally into SD male rats (250-300 g) for anesthesia. An open incision of 2 cm in length was longitudinally made slightly on the right to the center of the neck, and the right common carotid artery trunk, carotid external artery and carotid internal artery were dissected along the margin of the inner side of sternocleidomastoid muscles. The open incisions in the carotid internal artery and the proximal end of the common carotid artery were occluded respectively with noninvasive arterial clips. A small open incision was made across the carotid external artery, and the distal end of the carotid external artery was ligated. The arterial clip at the proximal end of the carotid external artery was released, and 10 μl blood was drawn before the proximal end of the common carotid artery was again occluded with the noninvasive arterial clip. The 10 μl blood drawn was placed in a 1 mL EP vial and kept at RT for 30 min for coagulation of blood, and then transferred into a −20° C. refrigerator for 1 h to allow coagulation. After 1 h, the blood clots were taken out, into which 1 mL saline was added, and then broken into uniform microthrombus by using a steel spatula. The microthrombus suspension was then transferred to a 1 mL injector until use. At the same time when the clip on the carotid internal artery of the rat was released, 1 mL thrombus suspension in the injector was slowly injected from the carotid external artery of the rat to its proximal end, and the suspension was injected into the brain of the rat through the carotid internal artery. Subsequently, the proximal end of the carotid external artery was ligated, the arterial clips on the carotid internal artery and the common carotid artery were released, and blood flow was restored. The jugular common vein of the rats was dissected. The vein was immediately ligated, 3 drops of penicillin was dropped at the wound site, the wound was stitched up, and the animals were allowed to come around, as the sham operation group. Or injection of urokinase in normal saline (positive control group, at a dosage of 20000 IU/kg), normal saline (blank control group, at a dosage of 3 ml/kg), TMMZ in normal saline (component control group, at a dosage of 1 μmol/kg), a thrombolytic peptide ARPAK (SEQ. ID NO. 4), GRPAK (SEQ. ID NO. 5), RPAK (SEQ. ID NO. 3) or PAK in normal saline (component control group, at a dosage of 1 μmol/kg), or one of compounds Ia-Il in normal saline (at a dosage of 0.1 μmol/kg) was carried out. 24 h after the rats were awake, the degree of damage in the neural function was evaluated by the Zealonga method. A score of 0 indicated no sign of loss in neural function, 1 indicated the front limbs on the undamaged side could not stretch out, 2 indicated walking toward the undamaged side, 3 indicated tail-chasing walking in circles toward the undamaged side, 4 indicated involuntary walking with disturbance of consciousness, and 5 indicated death.

rats with stroke [3] = experiment: Cerebral infarction volume after immediate treatment of stroke (TTC staining); format: in vivo, SD rats; conditions: 1 μmol/kg; immediate treatment; n = 10
Description: After the rats were awake for 24 h and assessed for their degree of damage in neural function in Experimental example 6, they were anesthesized with urethane followed by immediate decapitation and removal of the brain. Brain tissues were kept in a −20° C. refrigerator for 2 h, and coronal sections of about 2 mm were successively sliced from the prefrontal end for a total of 6 sections, and then placed into a 2% TTC solution to incubate in darkness at 37° C. for 30 min. The color change in brain sections was observed: normal brain tissues were stained red by TTC, while ischemic brain tissues, i.e., brain tissues with infracts, appeared in a white color. Photographs were taken by using a digital camera and processed with SPSS statistics software, and the volume of infarction in brain tissues and the volume of normal brain tissues in the coronal sections were calculated.

thrombus [4] = experiment: In vivo anti-thrombus experiment (arteriovenous cannula with thread); parameters: species or system SD rats; conditions: n = 11
Description: SD rats (male, 220 to 230 g) were randomly divided into groups with 11 rats in each group. The rats were fed at a resting state for 1 day and fasted overnight. […] After 30 min, the rats were anesthetized with a 20% urethane solution, and the right carotid artery and the left carotid vein were dissected. A cannula was filled with sodium heparin in normal saline, and one end thereof was inserted into the left vein, while the other end was injected with a certain amount of sodium heparin for anticoagulation with an injector and then inserted into the right artery. Blood flew from the right artery to the left vein through the polyethylene tubing, and the thread attached with thrombus was taken out after 15 min and the weight thereof was recorded. The wet thrombus weight was determined by subtracting the thread weight from the total weight.

[5] = tested on: thrombus from rat arterial blood; experiment: In vitro thrombolysis; parameters: species or system SD rats; conditions: 100 nM, 2 h at 37° C., n = 6
Description: SD rats (male, 350 to 400 g) were anaesthetized by intraperitoneal injection of a urethane solution at a dosage of 1200 mg/kg. The anaesthetized rats were fixed in a supine position, and the right common carotid artery was dissected, clamped at the proximal end with an arterial clip, and penetrated with a suture at the proximal and distal ends, respectively. The suture at the distal end is clipped tightly by a hemostatic clamp at the fur. Cannulation was performed at the distal end, the artery clamp was removed, and the total arterial blood was discharged into a 50 ml container previously treated with silicone oil. […] rat arterial blood was injected into a vertically fixed glass tube (20 mm in length, with an inner diameter of 4 mm and an outer diameter of 5 mm, sealed with a rubber stopper at the bottom), into which was immediately inserted a thrombus immobilization screw made of stainless steel. […] 40 min after the blood was coagulated, the rubber stopper at the bottom of the glass tube was removed, the stem of the thrombus immobilization screw was nipped by forceps, and the thrombus-wrapped thrombus immobilization screw was carefully taken out from the glass tube. The screw was then suspended and dipped in triple-distilled water to remove excessive blood, and accurately weighed after 1 h. The thrombus was suspended in 8 mL of normal saline, or a solution of compounds Ia-Il in normal saline (at a concentration of 100 nM), or a solution of ARPAK (SEQ. ID NO. 4), GRPAK (SEQ. ID NO. 5), RPAK (SEQ. ID NO. 3) or PAK in normal saline (at a concentration of 100 nM), or a solution of urokinase in normal saline (100 IU/mL), then shaked at 37° C. in a thermostatic shaker (63 r/min), and removed after 2 h and accurately weighed to determine the weight of the thrombus.

thrombus [6] = experiment: In vivo thrombolysis, rat arteriovenous bypass thrombolysis model; parameters: species or system SD rats; conditions: 1 μmol/kg, after 1 h, n = 10
Description: SD rats (male, 220 to 230 g) were anaesthetized by intraperitoneal injection of a urethane solution at a dosage of 1200 mg/kg. The anaesthetized rats were fixed in a supine position, and the right common carotid artery was dissected, clamped at the proximal end with an arterial clip, and penetrated with a suture at the proximal and distal ends, respectively. The suture at the distal end is clipped tightly by a hemostatic clamp at the fur. Cannulation was performed at the distal end, the arterial clamp was removed, and about 1 ml arterial blood was discharged into a 1 ml eppendorf. 0.1 ml rat arterial blood was injected into a vertically fixed glass tube (15 mm in length, with an inner diameter of 2.5 mm and an outer diameter of 5.0 mm, sealed with a rubber stopper at the bottom), into which was immediately inserted a thrombus immobilization screw made of stainless steel. […] 15 min after the blood was coagulated, the rubber stopper at the bottom of the glass tube was removed, the stem of the thrombus immobilization screw was nipped by forceps, and the thrombus-wrapped thrombus immobilization screw was carefully taken out of the glass tube and then accurately weighed.
A bypass cannula was composed of 3 segments. The middle segment was a polyethylene tubing having a length of 60.0 mm and an inner diameter of 3.5 mm. The segments on both ends were similar polyethylene tubes having a length of 100.0 mm, an inner diameter of 1.0 mm and an outer diameter of 2.0 mm, one end of which was pulled to form a tip, with an outer diameter of 1.0 mm, that could be inserted into the rat carotid artery or vein, and the other end of which was sheathed by a polyethylene tube having a length of 7.0 mm and an outer diameter of 3.5 mm (thickened in order to be inserted into the polyethylene tubing of the middle segment). The inner wall of the 3-segment cannula was entirely silylated (with 1% silicone oil in ethyl ether). The thrombus-wrapped thrombus immobilization screw was placed into the polyethylene tubing of the middle segment, and both ends of the tubing sheathed the thickened ends of the two polyethylene tubes. The cannula was filled with a heparin solution in normal saline (50 IU/kg) through the tip end by using an injector and was ready for use. The trachea of the anaesthetized rat was then dissected and tracheal cannulation was performed. The left external carotid vein of the rat was dissected, and penetrated with a suture at the proximal and distal ends, respectively. An uneven open incision was careful made on the exposed left external carotid vein, and the tip of the bypass cannula prepared as described above was inserted into the proximal end of the open incision in the left external carotid vein, away from the stem of the thrombus immobilization screw in the middle segment of the bypass cannula (which accommodated the accurately weighed thrombus immobilization screw). A precise amount of heparin in saline (50 IU/kg) was injected through the tip at the other end by using an injector. At this moment, without removing the injector from the ethylene tube, the tubing between the injector and the polyethylene tube was clamped with forceps. The blood flow was stopped by clamping the proximal end of the right common carotid artery with an arterial clip, and an uneven open incision was cut carefully across the common carotid artery near the clip. The injector was pulled out of the tip of the polyethylene tube, and the tip of the polyethylene tube was then inserted into the proximal end of the artery open incision. Both ends of the bypass cannula were fixed to the artery or vein with #4 sutures. […]

| Compound | Percentage of infarction volume (Mean ± SD %) (rats with stroke [3]) | Weight reduction in thrombus (Mean ± SD mg) [5] [mg] | Weight reduction in thrombus (Mean ± SD mg) (thrombus [6]) [mg] | Wet weight of thrombus (Mean ± SD mg) (thrombus [4]; 10 μmol/kg by gavage) [mg] | further results |
| --- | --- | --- | --- | --- | --- |
| CC1(C)N([O])C(c2ccc(OCC(=O)O)cc2)=[N+]([O-])C1(C)C [TMMZ, 1,3-dioxo-2-(4′-oxyacetoxy-phenyl)-4,4,5,5-tetramethylimidazoline, reference compound] | 22.96 ± 2.43 ^a % |  |  |  | Percentage of inhibition (Mean ± SD %) of vasodilatation induced by acetylcholine [1]: 15.47%; Neural function scores (Mean ± SD) (rats with stroke [2]; n = 10): 2.83 ± 0.75 ^a |
| CC(=O)Oc1ccccc1C(=O)O [aspirin, reference compound] |  |  |  |  | Wet weight of thrombus (Mean ± SD mg) (thrombus [4]; aspirin 33 mg/kg by gavage): 12.85 ± 2.49 ^a mg |
| Ala-Arg-Pro-Ala-Lys (ARPAK) [ARPAK (SEQ. ID NO. 4), thrombolytic peptide, component control, reference compound] | 22.00 ± 2.20 ^a % | 26.35 ± 3.10 | 15.20 ± 2.55 |  |  |
| Arg-Gly-Asp-Phe (RGDF) [RGDF (SEQ. ID NO. 13), targeting peptide, reference compound] |  |  |  | 19.55 ± 2.21 |  |
| Arg-Gly-Asp-Ser (RGDS) [RGDS (SEQ. ID NO. 11), targeting peptide, reference compound] |  |  |  | 20.02 ± 2.35 |  |
| Arg-Gly-Asp-Val (RGDV) [RGDV (SEQ. ID NO. 12), targeting peptide, reference compound] |  |  |  | 21.26 ± 2.07 |  |
| Arg-Pro-Ala-Lys (RPAK) [RPAK (SEQ. ID NO. 3), thrombolytic peptide, component control, reference compound] | 22.11 ± 2.25 ^a % | 26.01 ± 3.11 | 15.67 ± 2.61 |  | Neural function scores (Mean ± SD) (rats with stroke [2]; n = 10): did not exhibit anti-stroke activity; Neural function scores (Mean ± SD) (rats with stroke [2]; n = 10, listed as RPAKI (SEQ. ID NO. 3)): 2.38 ± 0.97 ^a |
| Gly-Arg-Pro-Ala-Lys (GRPAK) [GRPAK (SEQ. ID NO. 5), thrombolytic peptide, component control, reference compound] | 21.77 ± 2.46 ^a % | 15.47 ± 2.61 | 15.47 ± 2.61 |  |  |
| Pro-Ala-Lys [PAK, reference compound] | 22.07 ± 2.40 ^a % | 26.67 ± 3.20 | 15.00 ± 2.61 |  |  |
